Read-outs that look alike come from different tables or passages of the source.
Experiments:
[1] = molecular target: T1, HCV polymerase 1B (Δ21 NS5B, BK) (Hepatitis C virus genotype 1b, UniProt P26663); assay: biochemical
T1 construct: 20 to 50 nM Δ21 NS5B
Outline: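 Δ21 NS5B (genotype 1b, BK […]) preincubated 15 min RT with inhibitor, 2 mM MnCl2, pH 7.4, 60–125 μM GTP; started with 20 μM CTP/ATP, 1 μM 3H-UTP, 5 nM template RNA, run 2–4 h RT. Spermine-precipitated RNA filter-captured, scintillation counted; IC50 from tight-binding (Morrison) fit.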

[2] = molecular target: T2, HCV polymerase 1A (Δ21 NS5B, H77) (Hepatitis C virus genotype 1a, UniProt P27958); assay: biochemical; conditions: IC50 1a
T2 construct: 20 to 50 nM Δ21 NS5B
T2 sequence (P27958 2421-2990, stated change not applied): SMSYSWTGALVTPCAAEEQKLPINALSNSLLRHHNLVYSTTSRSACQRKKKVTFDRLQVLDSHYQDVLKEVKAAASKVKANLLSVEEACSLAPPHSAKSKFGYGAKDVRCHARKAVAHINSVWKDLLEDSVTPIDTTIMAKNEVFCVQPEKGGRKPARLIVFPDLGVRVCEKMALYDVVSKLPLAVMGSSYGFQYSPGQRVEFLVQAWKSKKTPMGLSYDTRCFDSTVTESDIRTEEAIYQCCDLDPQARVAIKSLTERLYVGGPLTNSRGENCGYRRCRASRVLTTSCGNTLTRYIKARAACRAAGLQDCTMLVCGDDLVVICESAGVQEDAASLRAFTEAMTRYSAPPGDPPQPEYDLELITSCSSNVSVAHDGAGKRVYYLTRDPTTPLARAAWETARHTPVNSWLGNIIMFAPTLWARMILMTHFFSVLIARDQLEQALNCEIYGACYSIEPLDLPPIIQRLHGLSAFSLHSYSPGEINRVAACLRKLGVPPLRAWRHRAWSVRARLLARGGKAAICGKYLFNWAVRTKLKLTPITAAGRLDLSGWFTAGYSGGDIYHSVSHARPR
Outline: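 Incorporation of 1 μM ^3H-UTP, with 20 μM each of CTP and ATP on 5 nM template RNA, ran 2–4 h at room temperature. Spermine-precipitated product was filtered and scintillation-counted. IC50 came from tight-binding non-linear regression of cpm against inhibitor concentration.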

[3] = tested on: genotype 1b-Con1 subgenomic replicon cell line; assay: microbe, parasite or virus in culture; format: cell-based, HCV; conditions: read-out: EC50 1b
[4] = tested on: genotype 1a-H77 subgenomic replicon cell line; assay: microbe, parasite or virus in culture; format: cell-based, HCV; conditions: read-out: EC50 1a

T1 sequence (P26663 2420-2989, stated change not applied): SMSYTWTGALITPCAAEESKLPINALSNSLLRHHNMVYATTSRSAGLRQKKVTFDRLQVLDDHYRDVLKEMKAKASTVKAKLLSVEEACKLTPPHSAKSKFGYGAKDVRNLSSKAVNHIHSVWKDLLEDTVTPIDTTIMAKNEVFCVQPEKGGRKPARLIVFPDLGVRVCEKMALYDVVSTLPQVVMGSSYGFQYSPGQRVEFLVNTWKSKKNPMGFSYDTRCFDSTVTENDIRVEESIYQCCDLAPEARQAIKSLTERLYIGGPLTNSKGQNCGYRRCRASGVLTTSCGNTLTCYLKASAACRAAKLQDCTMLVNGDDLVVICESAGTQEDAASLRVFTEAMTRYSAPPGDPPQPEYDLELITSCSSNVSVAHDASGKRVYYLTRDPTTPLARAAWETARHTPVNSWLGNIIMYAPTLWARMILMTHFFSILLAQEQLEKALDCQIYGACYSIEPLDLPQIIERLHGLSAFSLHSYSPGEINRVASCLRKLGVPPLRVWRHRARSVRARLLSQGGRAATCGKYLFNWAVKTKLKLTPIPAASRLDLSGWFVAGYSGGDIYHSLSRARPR

Row | SMILES | IC50 [1] [nM] | IC50 [2] [nM] | EC50 ([3]; Hepatitis C virus) [nM] | EC50 ([4]; Hepatitis C virus) [nM] | IC50 ([1]; read-out: IC50 1b, HCV polymerase 1b) [nM] | EC50 [3] [nM] | EC50 [4] [nM]
1 | COc1c(-c2ccc3c(c2)CC[C@@H]3CNS(C)(=O)=O)cc(-n2ccc(=O)[nH]c2=O)cc1C(C)(C)C (single isomer, unassigned) [IB-L0-2.9] | < 10 | < 10 | < 10 | < 10 | – | – | –
2 | COc1c(-c2ccc3c(c2)CC[C@H]3CNS(C)(=O)=O)cc(-n2ccc(=O)[nH]c2=O)cc1C(C)(C)C (single isomer, unassigned) [IB-L0-2.15] | 10 to 100 | < 10 | 10 to 100 | 100 to 1000 | – | – | –
3 | COc1c(-c2ccc3c(c2)CC[C@@H]3C(C)(C)NS(C)(=O)=O)cc(-n2ccc(=O)[nH]c2=O)cc1C(C)(C)C (single isomer, unassigned) [IB-L0-2.22] | 10 to 100 | 10 to 100 | 10 to 100 | 100 to 1000 | – | – | –
4 | COc1c(-c2ccc3c(c2)CC[C@H]3C(C)(C)NS(C)(=O)=O)cc(-n2ccc(=O)[nH]c2=O)cc1C(C)(C)C (single isomer, unassigned) [IB-L0-2.37] | 100 to 1000 | 100 to 1000 | 100 to 1000 | > 1000 | – | – | –
5 | COc1c(-c2ccc(/C=N/NS(C)(=O)=O)cc2)cc(N2CCC(=O)NC2=O)cc1C(C)(C)C [IA-L0-1.1, (E)-N′-((3′-tert-butyl-5′-(2,4-dioxotetrahydropyrimidin-1(2H)-yl)-2′-methoxybiphenyl-4-yl)methylene)methanesulfonohydrazide] | 10 to 100 | < 10 | < 10 | 100 to 1000 | – | – | –
6 | COc1c(-c2ccc(/C(C)=N/NS(C)(=O)=O)cc2)cc(N2CCC(=O)NC2=O)cc1C(C)(C)C [IA-L0-1.2, (E)-N′-(1-(3′-tert-butyl-5′-(2,4-dioxotetrahydropyrimidin-1(2H)-yl)-2′-methoxybiphenyl-4-yl)ethylidene)methanesulfonohydrazide] | 10 to 100 | 10 to 100 | 10 to 100 | 100 to 1000 | – | – | –
7 | COc1c(-c2cc(F)c(/C=N/NS(C)(=O)=O)c(F)c2)cc(N2CCC(=O)NC2=O)cc1C(C)(C)C [IA-L0-1.3, (E)-N′-((3′-tert-butyl-5′-(2,4-dioxotetrahydropyrimidin-1(2H)-yl)-3,5-difluoro-2′-methoxybiphenyl-4-yl)methylene)methanesulfonohydrazide] | 100 to 1000 | 100 to 1000 | 100 to 1000 | 100 to 1000 | – | – | –
8 | COc1c(-c2ccc(/C=N/NS(C)(=O)=O)c(F)c2)cc(N2CCC(=O)NC2=O)cc1C(C)(C)C [IA-L0-1.4, (E)-N′-((3′-tert-butyl-5′-(2,4-dioxotetrahydropyrimidin-1(2H)-yl)-3-fluoro-2′-methoxybiphenyl-4-yl)methylene)methanesulfonohydrazide] | 10 to 100 | 10 to 100 | 10 to 100 | 100 to 1000 | – | – | –
9 | COc1ccc(-c2cc(N3CCC(=O)NC3=O)cc(C(C)(C)C)c2OC)cc1/C=N/NS(C)(=O)=O [IA-L0-1.5, (E)-N′-((3′-tert-butyl-5′-(2,4-dioxotetrahydropyrimidin-1(2H)-yl)-2′,4-dimethoxy-biphenyl-3-yl)methylene)methanesulfonohydrazide] | 100 to 1000 | 100 to 1000 | > 1000 | > 1000 | – | – | –
10 | COc1c(-c2ccc(/C=N/NS(C)(=O)=O)c(F)c2F)cc(N2CCC(=O)NC2=O)cc1C(C)(C)C [IA-L0-1.6, (E)-N′-((3′-tert-butyl-5′-(2,4-dioxotetrahydropyrimidin-1(2H)-yl)-2,3-difluoro-2′-methoxybiphenyl-4-yl)methylene)methanesulfonohydrazide] | 10 to 100 | 10 to 100 | 10 to 100 | 100 to 1000 | – | – | –
11 | COc1c(-c2cccc(/C=N/NS(C)(=O)=O)c2)cc(N2CCC(=O)NC2=O)cc1C(C)(C)C [IA-L0-1.7, (E)-N′-((3′-tert-butyl-5′-(2,4-dioxotetrahydropyrimidin-1(2H)-yl)-2′-methoxybiphenyl-3-yl)methylene)methanesulfonohydrazide] | 100 to 1000 | > 1000 | > 1000 | > 1000 | – | – | –
12 | COc1c(-c2cccc(/C(C)=N\NS(C)(=O)=O)c2)cc(N2CCC(=O)NC2=O)cc1C(C)(C)C [IA-L0-1.8, (Z)—N′-(1-(3′-tert-butyl-5′-(2,4-dioxotetrahydropyrimidin-1(2H)-yl)-2′-methoxybiphenyl-3-yl)ethylidene)methanesulfonohydrazide] | 100 to 1000 | 100 to 1000 | > 1000 | > 1000 | – | – | –
13 | COc1c(-c2ncc(-c3cccc(NS(C)(=O)=O)c3)o2)cc(N2CCC(=O)NC2=O)cc1C(C)(C)C [IA-L0-1.9, N-(3-(2-(3-tert-butyl-5-(2,4-dioxotetrahydropyrimidin-1(2H)-yl)-2-methoxyphenyl)oxazol-5-yl)phenyl)methanesulfonamide] | 100 to 1000 | 10 to 100 | 100 to 1000 | > 1000 | – | – | –
14 | COc1c(/C=C\c2ccc(NS(C)(=O)=O)cc2)cc(N2CCC(=O)NC2=O)cc1C(C)(C)C [IA-L1-1.10, (Z)-N-(4-(3-tert-butyl-5-(2,4-dioxotetrahydropyrimidin-1(2H)-yl)-2-methoxystyryl)phenyl)methanesulfonamide] | 10 to 100 | 10 to 100 | 10 to 100 | 10 to 100 | – | – | –
15 | COc1c(/C=C\c2ccc(NS(C)(=O)=O)cc2)cc(N2CCC(=O)NC2=O)cc1C(C)(C)C [IA-L1-1.20, (Z)—N-(4-(3-tert-butyl-5-(2,4-dioxotetrahydropyrimidin-1(2H)-yl)-2-methoxystyryl)phenyl)methanesulfonamide] | – | < 10 | – | – | 10 to 100 | 10 to 100 | 10 to 100
16 | COC(=O)c1cc(NS(C)(=O)=O)ccc1C#Cc1cc(-n2ccc(=O)[nH]c2=O)cc(C(C)(C)C)c1OC [IB-L2-1.7, methyl 2-((3-tert-butyl-5-(2,4-dioxo-3,4-dihydropyrimidin-1(2H)-yl)-2-methoxyphenyl)-ethynyl)-5-(methylsulfonamido)benzoate] | 10 to 100 | < 10 | < 10 | – | – | – | –
17 | COc1c(C#Cc2cnc(NS(C)(=O)=O)cn2)cc(-n2ccc(=O)[nH]c2=O)cc1C(C)(C)C [IB-L2-1.9, N-(5-((3-tert-butyl-5-(2,4-dioxo-3,4-dihydropyrimidin-1(2H)-yl)-2-methoxyphenyl)ethynyl)-pyrazin-2-yl)methanesulfonamide] | 10 to 100 | 100 to 1000 | – | > 1000 | – | – | –
18 | COc1c(C#Cc2ccc(NS(C)(=O)=O)cc2C(C)(C)C)cc(-n2ccc(=O)[nH]c2=O)cc1C(C)(C)C [IB-L2-1.10, N-(3-tert-butyl-4-((3-tert-butyl-5-(2,4-dioxo-3,4-dihydropyrimidin-1(2H)-yl)-2-methoxy-phenyl)ethynyl)phenyl)methanesulfonamide] | 10 to 100 | < 10 | 10 to 100 | – | – | – | –
19 | COc1c(C(=O)Nc2ccc(NS(C)(=O)=O)cc2)cc(-n2c(C)cc(=O)[nH]c2=O)cc1C(C)(C)C [IB-L3-1.3, 3-tert-butyl-2-methoxy-5-(6-methyl-2,4-dioxo-3,4-dihydropyrimidin-1(2H)-yl)-N-(4-(methylsulfonamido)phenyl)benzamide] | > 1000 | 100 to 1000 | 100 to 1000 | – | – | – | –
